Measured values from patent US20260083731A1, “METHODS OF TREATING UVEAL MELANOMA WITH A PKC INHIBITOR” (IDEAYA BIOSCIENCES, INC., priority 2022, published 2026).

Legend:
[1] = test system: ocular tumor (uveal melanoma); assay: PET scan of metabolic activity of the ocular tumor (FDG avidity, SUV) in treated patients; type: in vivo, human
Method: (§1) A patient (patient 2) (enrolled in NCT02601378) with metastatic disease to liver and peritoneum at the time of diagnosis, and with primary lesion intact (intact ocular tumor) was treated with Compound 1 (300 mg BID).
A patient (patient 4) (enrolled in NCT05187884) was treated with Compound 1 (300 mg BID) for about 28 days, prior to the planned interventional procedure (e.g., enucleation). A 31% ocular tumor reduction in maximal apical height by ocular ultrasound was observed (after about 28 days administration of Compound 1).

[2] = test system: ocular tumor (uveal melanoma); assay: Neoadjuvant treatment of uveal melanoma patients, ocular tumor size by ocular ultrasound; type: in vivo, human; conditions: vs baseline
Source text: Patients can meet all of the following inclusion criteria: • Patient must be at least 18 years of age. • Patient is able to provide written, informed consent before initiation of any study related-procedures, and is able, in the opinion of the investigator, to comply with all the requirements of the study. • Primary diagnosis of uveal melanoma as clinically determined by the treating investigator planned to undergo enucleation (prior plaque brachytherapy is permitted) • Life expectancy >3 months. • Able to safely swallow orally administered medication. • Patients with a prior history of or clinically stable concurrent malignancy are eligible for enrolment provided the malignancy is clinically insignificant, no treatment is required, and the patient is clinically stable. • Patients with a history of squamous or basal cell carcinoma of the skin or carcinoma in the situ of the cervix may be enrolled. • Patients with prostate cancer with an elevated PSA not requiring treatment may be enrolled. • Patient has Eastern Cooperative Oncology Group (ECOG) performance status 0-1 (Karnofsky 70%). • Patient has adequate organ function at screening: • Absolute neutrophil count ≥1500/mm3 without the use of hematopoietic growth factors • Platelet count ≥75,000/mm3 (must be at least 2 weeks post-platelet transfusion and not receiving platelet-stimulating agents) • Haemoglobin ≥8.0 g/dL (must be at least 2 weeks post-red blood cell transfusion and not receiving erythropoietic-stimulating agents) • Total bilirubin ≤1.5× the upper limit of normal (ULN).
The presence of any of the following can exclude a patient from being eligible for the study: • Previous treatment with a PKC inhibitor • Have adverse events (AEs) from prior anti-cancer therapy that have not resolved to Grade ≤1 except for alopecia, prior peripheral neuropathy, or anemia. Endocrinopathies resulting from previous immunotherapy are considered part of the medical history and not an AE. • Untreated or symptomatic malignant lesions in the central nervous system (CNS). • Known human immunodeficiency virus (HIV) or acquired immunodeficiency syndrome (AIDS)-related illness. • Active infection requiring therapy (except nail fungus), positive tests for Hepatitis B surface antigen (HBsAg) with detected Hepatitis B virus (HBV) DNA or positive Hepatitis C antibody with detected Hepatitis C virus (HCV) RNA. • Prior gastrectomy or upper bowel removal or any other gastrointestinal disorder or defect e.g., malabsorption disorder such as Crohn's disease or ulcerative colitis, that would interfere with absorption of Compound 1. • Patients who are receiving treatment with medications that cannot be discontinued prior to study entry and that are considered to be any of the following • known to be strong inducers or inhibitors of CYP3A4/5 • known to be substrates of CYP3A4/5, OAT3, OATP1B1, and MATE1/2-K with a narrow therapeutic index • Females who are pregnant or breastfeeding: • Women of childbearing potential must not be considering getting pregnant during the study. • Patients of reproductive potential (male & female) must practice an effective method of contraception during treatment and for 30 days following the last dose of Compound 1. […] If electrolytes are abnormal, they may be corrected, and baseline ECGs should be repeated. • Known to have previously received Compound 1 • Presence of any other condition that may increase the risk associated with study participation or may interfere with the interpretation of study results and, in the opinion of the investigator, would make the patient inappropriate for entry into the study.
A patient (patient 1) (enrolled in NCT05187884) was treated with Compound 1 (300 mg BID) for 27 days, prior to potential planned interventional procedure comprising enucleation. A 22% ocular tumor reduction in maximal apical height by ocular ultrasound (after about 28 days administration of Compound 1) was observed prior to the planned interventional procedure. […]

[3] = test system: ocular tumor (uveal melanoma); assay: Clinical outcome of the affected eye in treated uveal melanoma patients; type: in vivo, human
Method: as §1
A patient (patient 5) (enrolled in NCT05187884) was treated with Compound 1 (300 mg BID) for about 28 days. A 13% ocular tumor reduction in maximal apical height by ocular ultrasound was observed (after about 28 days administration of Compound 1). The patient is continuing on treatment to maximal benefit up to 6 months prior to planned enucleation. The patient was continuing treatment with Compound 1 (300 mg BID) for additional about 3 months (in addition to about 28 days as described above), and a 24% ocular tumor reduction in maximal apical height by ocular ultrasound was observed. […] The patient continues on adjuvant therapy for potentially up to 6 months.
A patient (patient 6) (enrolled in NCT05187884) was treated with Compound 1 (300 mg BID) for about 56 days, prior to the planned interventional procedure (e.g. enucleation). A 11% ocular tumor reduction in maximal apical height and 23% in Largest Basal Diameter by ocular ultrasound was observed. The patient is continuing on treatment to maximal benefit up to 6 months prior to planned enucleation. The patient continued treatment with Compound 1 (300 mg BID) for about 2 months (in addition to the 56 days as described above), and a 24% ocular tumor reduction in maximal apical height by ocular ultrasound was observed. The patient continued treatment with Compound 1 (300 mg BID) for about 1 month (in addition to about 4 months described above), and a 45% ocular tumor reduction in maximal apical height and 63% reduction in Largest Basal Diameter by ocular ultrasound was observed.

[4] = test system: uveal melanoma cells harboring GNAQ mutations; conditions: by targeting PKC/ERK1/2 and PKC/NF-xB pathways; X. Wu et al. 2012; cited from earlier work
[5] = patient 6, 300 mg BID, about 4 months plus about 1 month
[6] = patient 6, 300 mg BID, about 56 days
[7] = patient 7, 300 mg BID, after about 84 days
[8] = patient 8, 300 mg BID, after about 84 days
[9] = patient 9, 300 mg BID, after about 56 days

## CC1(N)CCN(c2cccnc2NC(=O)c2nc(-c3ncccc3C(F)(F)F)cnc2N)CC1 [Compound 1]
[1]; patient 2 (metastatic disease, intact ocular tumor), 300 mg BID, after about two weeks
  reduction in the metabolic activity of the ocular tumor (FDG avidity) by SUV, PET: 74%
[1]; patient 4, 300 mg BID, after about one month
  reduction in the metabolic activity of the ocular tumor (FDG avidity) by SUV, PET: 42%
[2]; patient 1, 300 mg BID, after about 28 days
  ocular tumor reduction in maximal apical height by ocular ultrasound: 22%
[2]; patient 3, 300 mg BID, after 28 days
  ocular tumor reduction in maximal apical height by ocular ultrasound: ~10%
[2]; patient 4, 300 mg BID, after about 28 days
  ocular tumor reduction in maximal apical height by ocular ultrasound: 31%
[2]; patient 5, 300 mg BID, about 28 days plus additional about 3 months
  ocular tumor reduction in maximal apical height by ocular ultrasound: 24%
[2]; patient 5, 300 mg BID, after about 28 days
  ocular tumor reduction in maximal apical height by ocular ultrasound: 13%
[2]; patient 6, 300 mg BID, 56 days plus about 2 months
  ocular tumor reduction in maximal apical height by ocular ultrasound: 24%
[2]; [5]
  ocular tumor reduction in maximal apical height by ocular ultrasound: 45%
  reduction in Largest Basal Diameter by ocular ultrasound: 63%
[2]; [6]
  ocular tumor reduction in maximal apical height by ocular ultrasound: 11%
  reduction in Largest Basal Diameter by ocular ultrasound: 23%
[2]; [7]
  ocular tumor reduction in maximal apical height by ocular ultrasound: 14.3%
  reduction in Largest Basal Diameter by ocular ultrasound: 15.2%
[2]; [8]
  ocular tumor reduction in maximal apical height by ocular ultrasound: 28.5%
  reduction in Largest Basal Diameter by ocular ultrasound: 19.4%
[2]; [9]
  ocular tumor reduction in maximal apical height by ocular ultrasound: 4.0%
  reduction in Largest Basal Diameter by ocular ultrasound: 2.1%
[3]; patient 2, 300 mg BID
  patient-reported visual symptoms in affected eye: improvement in visual symptoms in affected eye
[3]; patient 5, 300 mg BID neoadjuvant
  eye outcome (plaque brachytherapy enabled instead of planned enucleation): the eye was preserved
[3]; patient 6, 300 mg BID neoadjuvant
  eye outcome (plaque brachytherapy enabled instead of planned enucleation): the eye was preserved

## CN1CCN(c2nc(C3=C(c4c[nH]c5ccccc45)C(=O)NC3=O)c3ccccc3n2)CC1 [sotrastaurin]
[4]
  inhibition of growth of uveal melanoma cells harboring GNAQ mutations: selectively inhibit the growth
